The structures appear in SMILES notation. Some results are limits rather than exact numbers.

In one test the target is PI3Kγ (Mus musculus, UniProt Q9JHG7). Put plainly: Acumen Assay - Raw264.7 p-AKT Assay (C5a stimulated). The class given is cell-based. Particulars: Raw264.7 macrophage cells, compound 30 min, stimulated with 10 nM C5a for 5 min, p-AKT (Ser473) readout; read-out: PI3Kγ cell-C5a Raw264.7 IC50. Here is the method: Acumen Assay—Raw264.7 p-AKT Assay
Acumen® eX3 (A Multilaser Microplate Cytometer For Enhanced High Content Screening): TTP LabTech
3×10^4 Raw264.7 macrophage cells were seeded into 96-well plates with DMEM+10% heat-inactivated FBS at […], 90 ul/well, overnight. After starvation for 3 hr at 37° C. under 5% CO2, Raw264.7 cells were treated with 10 ul/well various concentrations of compound or 0.5% DMSO for 30 min, and then stimulated with 10 ul/well 10 nM C5a for 5 min.
1.) Cells were fixed 110 μL of 4% pre-warmed Paraformaldehyde (2% final), incubate for 45 min at room temperature. 2.) Remove paraformaldehyde solution. Add 100 μL of ice-cold 0.1% Triton X-100 in PBS and leave at 4° C. for 30 min. 3.) Wash once in 100 μL PBS. 4.) Incubate with 100 μL blocking buffer (1% BSA, in PBS) for 2 hours at room temperature. 5.) Wash once for 5 min with 100 ul PBS. 6.) Incubate with 40 μL 1:200 dilution of phospho AKT (Ser473) rabbit antibody in antibody dilution buffer (0.1% BSA, in PBS) overnight at 4° C. 7.) Wash for 3 times for 10 min with 100 ul PBS. 8.) Incubate for 90 min at room temperature with 50 μL of goat anti-rabbit Alex488 antibody at a 1:1,000 dilution in antibody dilution buffer (0.1% BSA, in PBS). Cover plate in foil to keep out of light. 9.) Wash for 3 times for 10 min with 100 μL PBS. 10.) Add 50 μL of 1.5 μM Propidium Iodide solution to each well to determine cell number at a 1:1,000 dilution in PBS (stock: 1.5 mM). 11.) Incubate at room temperature for 30 min. 12.) Seal the plate with a black cover-seal (supplied with plate). 13.) Load the plate into the Acumen Explorer and scan with the appropriate instrument settings.

The target in another test is p110γ (Homo sapiens, UniProt P48736). The test can be described thus: Transcreener KINASE Assay, kinase inhibition of p110γ. The format is biochemical. Conditions: for PI3Kγ IH % @ 1 uM: 1 uM test compound; for IC50: read-out: PI3Kγ IC50. A digest of the protocol:
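Recombinant PI3K isoform complexes were tested in a two-step endpoint ADP-detection assay. Kinase reaction ran 80 min at room temperature, followed by 60 min with ADP detection mix. Far-red competitive fluorescence polarization immunoassay read-out; IC50s fitted from the FP data.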

Another test has as its target p110δ/p85α (Homo sapiens, UniProt O00329). Put plainly: Transcreener KINASE Assay, kinase inhibition of p110δ/p85α. The class given is biochemical. Particulars: for PI3Kδ IH % @ 1 uM: 1 uM test compound; for IC50: read-out: PI3Kδ IC50. Put shortly: (§1)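 ADP production was read by fluorescence polarization immunoassay (60 min detection step) after an 80 min room-temperature reaction of p110/p85α enzyme, compound in 2% DMSO, and PIP2/ATP solution (30 uM/10 uM as added) in HEPES buffer with MgCl2 and DTT. IC50s came from inhibition versus the DMSO control.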

The target in another test is p110β/p85α (Homo sapiens, UniProt P42338). The test can be described thus: Transcreener KINASE Assay, kinase inhibition of p110β/p85α. The format is biochemical. Conditions: for PI3Kβ IH % @ 1 uM: 1 uM test compound; for IC50: read-out: PI3Kβ IC50. A digest of the protocol: as §1
The target in another test is p110α/p85α (Homo sapiens, UniProt P42336). The test can be described thus: Transcreener KINASE Assay, kinase inhibition of p110α/p85α. The format is biochemical. Conditions: read-out: PI3Kα IC50. A digest of the protocol:
as §1

PI3Kγ, sequence (Q9JHG7 whole entry): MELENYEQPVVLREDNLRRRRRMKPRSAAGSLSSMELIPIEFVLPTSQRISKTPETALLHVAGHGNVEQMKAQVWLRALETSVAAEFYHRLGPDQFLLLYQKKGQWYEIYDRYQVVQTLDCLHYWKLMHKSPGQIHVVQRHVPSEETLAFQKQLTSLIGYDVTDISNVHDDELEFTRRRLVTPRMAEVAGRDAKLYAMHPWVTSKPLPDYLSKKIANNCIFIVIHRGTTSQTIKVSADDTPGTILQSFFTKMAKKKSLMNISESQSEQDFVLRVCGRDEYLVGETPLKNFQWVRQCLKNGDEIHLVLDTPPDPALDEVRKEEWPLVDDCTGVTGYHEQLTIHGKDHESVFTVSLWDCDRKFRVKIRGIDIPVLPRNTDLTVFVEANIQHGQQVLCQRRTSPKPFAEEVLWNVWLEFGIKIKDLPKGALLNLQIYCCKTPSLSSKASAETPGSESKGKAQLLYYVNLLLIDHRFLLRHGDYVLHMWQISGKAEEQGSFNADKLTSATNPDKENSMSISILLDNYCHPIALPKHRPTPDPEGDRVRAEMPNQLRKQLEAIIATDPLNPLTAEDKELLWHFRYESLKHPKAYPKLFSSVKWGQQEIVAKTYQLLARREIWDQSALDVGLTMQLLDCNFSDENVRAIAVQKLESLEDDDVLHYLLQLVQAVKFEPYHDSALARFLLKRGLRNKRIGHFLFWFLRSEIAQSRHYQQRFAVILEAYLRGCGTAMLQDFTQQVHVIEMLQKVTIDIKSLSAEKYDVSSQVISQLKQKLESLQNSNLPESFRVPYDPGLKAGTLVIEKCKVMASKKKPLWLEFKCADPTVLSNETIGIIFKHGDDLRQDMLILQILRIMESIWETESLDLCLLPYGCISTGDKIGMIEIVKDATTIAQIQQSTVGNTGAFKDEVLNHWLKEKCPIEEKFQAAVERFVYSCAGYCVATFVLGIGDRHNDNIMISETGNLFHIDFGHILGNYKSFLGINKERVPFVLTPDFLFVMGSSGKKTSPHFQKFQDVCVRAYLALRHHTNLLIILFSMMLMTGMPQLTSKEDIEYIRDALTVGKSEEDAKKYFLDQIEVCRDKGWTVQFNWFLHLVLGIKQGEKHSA
p110δ/p85α, sequence (O00329 whole entry): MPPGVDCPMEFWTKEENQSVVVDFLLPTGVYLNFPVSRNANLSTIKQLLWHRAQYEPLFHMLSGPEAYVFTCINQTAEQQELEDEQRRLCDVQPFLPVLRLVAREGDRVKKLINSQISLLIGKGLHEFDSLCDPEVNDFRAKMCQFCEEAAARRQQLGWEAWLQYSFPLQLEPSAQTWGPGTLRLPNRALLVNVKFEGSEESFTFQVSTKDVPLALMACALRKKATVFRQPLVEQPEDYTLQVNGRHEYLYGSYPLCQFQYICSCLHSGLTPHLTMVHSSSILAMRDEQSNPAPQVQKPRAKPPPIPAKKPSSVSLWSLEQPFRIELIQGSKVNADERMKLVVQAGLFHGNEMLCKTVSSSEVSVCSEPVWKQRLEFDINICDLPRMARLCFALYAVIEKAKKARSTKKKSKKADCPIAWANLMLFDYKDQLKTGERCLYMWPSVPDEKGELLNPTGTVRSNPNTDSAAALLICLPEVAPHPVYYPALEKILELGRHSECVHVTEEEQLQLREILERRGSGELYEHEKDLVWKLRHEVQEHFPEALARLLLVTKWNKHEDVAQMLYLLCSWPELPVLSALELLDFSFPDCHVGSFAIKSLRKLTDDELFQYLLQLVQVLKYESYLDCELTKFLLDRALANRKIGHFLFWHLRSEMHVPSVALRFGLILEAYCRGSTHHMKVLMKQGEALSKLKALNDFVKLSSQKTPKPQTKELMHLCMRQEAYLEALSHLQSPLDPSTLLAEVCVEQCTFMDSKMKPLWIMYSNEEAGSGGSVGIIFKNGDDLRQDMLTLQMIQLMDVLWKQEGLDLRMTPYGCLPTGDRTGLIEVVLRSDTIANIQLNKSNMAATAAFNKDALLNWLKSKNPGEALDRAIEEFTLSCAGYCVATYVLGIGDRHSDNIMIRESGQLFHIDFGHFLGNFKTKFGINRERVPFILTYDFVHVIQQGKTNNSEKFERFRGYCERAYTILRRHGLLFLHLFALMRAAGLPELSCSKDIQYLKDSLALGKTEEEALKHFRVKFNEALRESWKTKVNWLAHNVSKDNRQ
p110δ/p85α, sequence (P27986 whole entry partner): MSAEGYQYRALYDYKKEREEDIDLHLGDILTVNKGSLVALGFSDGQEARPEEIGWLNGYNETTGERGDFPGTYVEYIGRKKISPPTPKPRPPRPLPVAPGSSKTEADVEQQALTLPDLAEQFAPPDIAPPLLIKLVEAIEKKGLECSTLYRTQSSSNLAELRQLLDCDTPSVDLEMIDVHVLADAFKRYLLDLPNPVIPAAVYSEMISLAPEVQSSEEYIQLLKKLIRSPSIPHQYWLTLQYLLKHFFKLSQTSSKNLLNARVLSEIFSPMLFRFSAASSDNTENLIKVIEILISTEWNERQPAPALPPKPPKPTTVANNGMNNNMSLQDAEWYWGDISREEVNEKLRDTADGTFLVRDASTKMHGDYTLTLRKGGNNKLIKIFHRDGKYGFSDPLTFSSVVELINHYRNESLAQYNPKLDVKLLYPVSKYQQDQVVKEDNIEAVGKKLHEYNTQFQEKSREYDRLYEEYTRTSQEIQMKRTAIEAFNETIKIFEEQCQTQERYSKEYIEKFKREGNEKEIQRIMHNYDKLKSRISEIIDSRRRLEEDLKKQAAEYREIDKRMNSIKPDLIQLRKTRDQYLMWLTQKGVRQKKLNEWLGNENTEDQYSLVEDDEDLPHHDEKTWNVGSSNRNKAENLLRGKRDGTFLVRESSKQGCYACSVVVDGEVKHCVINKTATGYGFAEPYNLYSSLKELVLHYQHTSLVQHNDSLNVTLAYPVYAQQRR
p110γ, sequence (P48736 whole entry, canonical isoform): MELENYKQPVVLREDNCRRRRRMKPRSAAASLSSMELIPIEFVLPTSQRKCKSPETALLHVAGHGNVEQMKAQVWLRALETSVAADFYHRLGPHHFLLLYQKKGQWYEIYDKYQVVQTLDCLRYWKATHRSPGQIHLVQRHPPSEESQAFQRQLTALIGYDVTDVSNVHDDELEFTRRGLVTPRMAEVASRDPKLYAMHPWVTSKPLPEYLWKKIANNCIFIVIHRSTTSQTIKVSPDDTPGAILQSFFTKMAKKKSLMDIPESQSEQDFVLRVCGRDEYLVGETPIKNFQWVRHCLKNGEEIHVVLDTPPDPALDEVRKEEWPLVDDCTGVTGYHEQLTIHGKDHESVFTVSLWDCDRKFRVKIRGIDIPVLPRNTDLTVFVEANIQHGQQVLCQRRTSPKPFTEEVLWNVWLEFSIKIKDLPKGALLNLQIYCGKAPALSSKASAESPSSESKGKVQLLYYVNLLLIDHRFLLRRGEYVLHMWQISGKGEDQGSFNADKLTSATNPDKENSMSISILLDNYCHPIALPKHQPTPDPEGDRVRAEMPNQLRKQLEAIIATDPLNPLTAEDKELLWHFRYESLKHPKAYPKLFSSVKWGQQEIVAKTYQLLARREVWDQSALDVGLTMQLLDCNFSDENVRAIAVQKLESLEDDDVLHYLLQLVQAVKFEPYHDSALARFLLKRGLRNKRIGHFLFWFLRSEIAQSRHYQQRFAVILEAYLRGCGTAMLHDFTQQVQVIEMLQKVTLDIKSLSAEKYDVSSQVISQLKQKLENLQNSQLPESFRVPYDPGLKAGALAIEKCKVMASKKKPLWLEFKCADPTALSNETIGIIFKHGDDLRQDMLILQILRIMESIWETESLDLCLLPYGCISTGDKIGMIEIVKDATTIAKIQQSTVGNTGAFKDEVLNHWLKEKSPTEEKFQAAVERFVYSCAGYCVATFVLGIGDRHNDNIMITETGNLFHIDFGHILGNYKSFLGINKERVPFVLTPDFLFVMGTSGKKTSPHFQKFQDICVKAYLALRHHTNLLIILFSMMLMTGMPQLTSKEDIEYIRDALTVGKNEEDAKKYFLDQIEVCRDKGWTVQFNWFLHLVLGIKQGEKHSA
p110α/p85α, sequence (P42336 whole entry): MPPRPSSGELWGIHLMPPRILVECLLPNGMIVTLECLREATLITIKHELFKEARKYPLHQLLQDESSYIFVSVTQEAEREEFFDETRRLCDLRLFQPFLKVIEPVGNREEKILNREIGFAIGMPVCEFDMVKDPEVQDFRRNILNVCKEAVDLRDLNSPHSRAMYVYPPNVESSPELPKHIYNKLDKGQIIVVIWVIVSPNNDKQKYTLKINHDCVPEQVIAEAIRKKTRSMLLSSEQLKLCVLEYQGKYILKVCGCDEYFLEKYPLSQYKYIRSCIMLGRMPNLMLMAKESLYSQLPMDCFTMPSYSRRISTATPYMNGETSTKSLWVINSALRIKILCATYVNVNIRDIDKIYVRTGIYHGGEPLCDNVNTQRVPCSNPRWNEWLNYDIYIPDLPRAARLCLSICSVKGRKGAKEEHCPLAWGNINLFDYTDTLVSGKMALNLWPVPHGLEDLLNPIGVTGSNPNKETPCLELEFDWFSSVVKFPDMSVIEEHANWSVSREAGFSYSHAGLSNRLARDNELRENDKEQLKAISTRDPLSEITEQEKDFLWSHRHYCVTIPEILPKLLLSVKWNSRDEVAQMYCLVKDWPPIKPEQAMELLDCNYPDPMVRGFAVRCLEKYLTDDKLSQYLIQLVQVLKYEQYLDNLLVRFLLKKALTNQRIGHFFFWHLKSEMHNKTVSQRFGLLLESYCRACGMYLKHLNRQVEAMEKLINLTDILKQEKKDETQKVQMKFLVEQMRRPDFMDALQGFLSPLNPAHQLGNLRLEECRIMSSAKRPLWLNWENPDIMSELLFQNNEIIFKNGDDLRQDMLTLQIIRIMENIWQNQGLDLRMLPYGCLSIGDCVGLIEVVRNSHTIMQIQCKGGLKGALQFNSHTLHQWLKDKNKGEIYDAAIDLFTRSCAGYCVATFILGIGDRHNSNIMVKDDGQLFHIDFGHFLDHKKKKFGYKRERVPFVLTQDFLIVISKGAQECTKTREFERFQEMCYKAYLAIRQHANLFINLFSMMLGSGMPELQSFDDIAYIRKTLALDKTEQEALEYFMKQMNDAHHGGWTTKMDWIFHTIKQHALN
p110α/p85α, sequence (P27986 whole entry partner): as the sequence (P27986 whole entry partner) above

In general, IC50 refers to the concentration at which inhibition is half-maximal. For the molecule `CC(=O)c1cnc(N)nc1N1C[C@H](C)[C@H]1c1nn2ccc(Cl)c2c(=O)n1-c1ccccn1` [Compound 473], the IC50 at PI3Kγ worked out at 36 nM; at p110γ, 10 nM; on p110δ/p85α, 2 nM; on p110β/p85α it was 454 nM; at p110α/p85α, 921 nM. Also, the “PI3Kγ IH % @ 1 uM” value on p110γ is on record as 97.0%. The “PI3Kδ IH % @ 1 uM” value on p110δ/p85α is on record as more than 100%. Moreover, the “PI3Kβ IH % @ 1 uM” value on p110β/p85α worked out at 67.3%.

`C[C@H]1CN(c2nc(N)nc(N)c2C#N)[C@@H]1c1nn2ccc(Cl)c2c(=O)n1-c1ccc(F)cc1` [Compound 480]: the IC50 at PI3Kγ was found to be 11 nM; on p110γ it was 2 nM; at p110δ/p85α it was 3 nM; at p110β/p85α it was 81 nM; at p110α/p85α, 648 nM. The “PI3Kγ IH % @ 1 uM” value on p110γ is more than 100%. Besides, on p110δ/p85α, the “PI3Kδ IH % @ 1 uM” value is more than 100%. Also, on p110β/p85α, the “PI3Kβ IH % @ 1 uM” value is recorded as 93.6%.

`C[C@H]1CN(c2nc(N)nc(N)c2C#N)[C@@H]1c1nn2ccc(Cl)c2c(=O)n1-c1ccccc1` [Compound 481]: the IC50 at PI3Kγ worked out at 14 nM; on p110γ, 3 nM; on p110δ/p85α, 1 nM; at p110β/p85α, 78 nM; on p110α/p85α, 558 nM. Further, the “PI3Kγ IH % @ 1 uM” value on p110γ is reported as more than 100%. Also, at p110δ/p85α, the “PI3Kδ IH % @ 1 uM” value is more than 100%. The “PI3Kβ IH % @ 1 uM” value at p110β/p85α is on record as 92.0%.

As to `Cc1cc(Cl)c2c(=O)n(-c3ccccc3)c([C@@H]3CCN3c3ncnc4[nH]cnc34)nn12` [Compound 496], the IC50 on PI3Kγ turned out to be 2 nM. For the same molecule, on p110γ, the “PI3Kγ IH % @ 1 uM” value amounted to 17.2%. Moreover, the “PI3Kδ IH % @ 1 uM” value at p110δ/p85α is on record as 34.2%. Also, the “PI3Kβ IH % @ 1 uM” value on p110β/p85α came out at 18.3%.

Source of the values: patent publication US20150307520A1, “NOVEL HETEROARYL AND HETEROCYCLE COMPOUNDS, COMPOSITIONS AND METHODS THEREOF” (HUTCHISON MEDIPHARMA LIMITED, priority 2012, published 2015).
